{"source": "patent US8101550B2", "about": "“Anthranilic acid diamide derivative with hetero-aromatic and hetero-cyclic substituents” (Bayer Cropscience AG, priority 2006, dated 2012)"}
{"assay": "log P determination by HPLC on reverse-phase column (EEC Directive 79/831 Annex V.A8)", "type": "physicochemical", "summary_of_the_method": "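Log P was derived from retention times by linear interpolation between successive unbranched alkan-2-one standards (C3–C16). The standards and samples ran on a C18 reverse-phase column at 43 °C with a 10→95% acetonitrile gradient in 0.1% formic acid (pH 2.7). The method follows EEC Directive 79/831 Annex V.A8.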"}
{"smiles": "CCCNC(=O)c1cc(I)cc(C)c1NC(=O)c1cc(Cn2nc(C(F)(F)F)cc2C(F)(F)F)nn1-c1ncccc1Cl", "note": "[I-1-229]", "logP": 4.33}
{"smiles": "Cc1cc(I)cc(C(=O)NC(C)C)c1NC(=O)c1cc(Cn2nc(C(F)(F)F)cc2C(F)(F)F)nn1-c1ncccc1Cl", "note": "[I-1-230]", "logP": 4.29}
{"smiles": "Cc1cc(I)cc(C(=O)NC2CC2)c1NC(=O)c1cc(Cn2nc(C(F)(F)F)cc2C(F)(F)F)nn1-c1ncccc1Cl", "note": "[I-1-231]", "logP": 4.01}
{"smiles": "Cc1cc(I)cc(C(=O)NCC(F)(F)F)c1NC(=O)c1cc(Cn2nc(C(F)(F)F)cc2C(F)(F)F)nn1-c1ncccc1Cl", "note": "[I-1-232]", "logP": 5.28}
{"smiles": "Cc1cc(I)cc(C(=O)NC(C)C2CC2)c1NC(=O)c1cc(Cn2nc(C(F)(F)F)cc2C(F)(F)F)nn1-c1ncccc1Cl", "note": "(stereo not drawn) [I-1-233]", "logP": 4.55}
{"smiles": "Cc1cc(I)cc(C(N)=O)c1NC(=O)c1cc(Cn2nc(C(F)(F)F)cc2C(F)(F)F)nn1-c1ncccc1Cl", "note": "[I-1-234]", "logP": 3.56}
{"smiles": "Cc1cc(I)cc(C(=O)NCC2CC2)c1NC(=O)c1cc(Cn2nc(C(F)(F)F)cc2C(F)(F)F)nn1-c1ncccc1Cl", "note": "[I-1-235]", "logP": 4.34}
{"smiles": "Cc1cc(I)cc(C(=O)NC(C2CC2)C2CC2)c1NC(=O)c1cc(Cn2nc(C(F)(F)F)cc2C(F)(F)F)nn1-c1ncccc1Cl", "note": "[I-1-236]", "logP": 4.80}
{"smiles": "CNC(=O)c1cc(I)cc(C)c1NC(=O)c1cc(Cn2nc(C(F)(F)F)nc2C(F)(F)F)nn1-c1ncccc1Cl", "note": "[I-1-237]", "logP": 3.60}
{"smiles": "Cc1cc(I)cc(C(=O)NC(C)C)c1NC(=O)c1cc(Cn2nc(C(F)(F)F)nc2C(F)(F)F)nn1-c1ncccc1Cl", "note": "[I-1-238]", "logP": 4.06}
{"smiles": "CNC(=O)c1cc(I)cc(C)c1NC(=O)c1cc(Cn2cc(C(F)(F)C(F)(F)F)c(C(F)(F)C(F)(F)F)n2)nn1-c1ncccc1Cl", "note": "[I-1-239]", "logP": 4.51}
{"smiles": "Cc1cc(I)cc(C(=O)NC(C)C)c1NC(=O)c1cc(Cn2cc(C(F)(F)C(F)(F)F)c(C(F)(F)C(F)(F)F)n2)nn1-c1ncccc1Cl", "note": "[I-1-240]", "logP": 4.96}
{"smiles": "Cc1cc(I)cc(C(=O)NCC#N)c1NC(=O)c1cc(Cn2nc(C(F)(F)F)cc2C(F)(F)F)nn1-c1ncccc1Cl", "note": "[I-1-241]", "logP": 3.73}
{"smiles": "Cc1cc(I)cc(C(=O)NC(C)C)c1NC(=O)c1cc(Cn2cc(Cl)c(C(F)(F)C(F)(F)F)n2)nn1-c1ncccc1Cl", "note": "[I-1-242]", "logP": 4.40}
{"smiles": "CNC(=O)c1cc(I)cc(C)c1NC(=O)c1cc(Cn2cc(Cl)c(C(F)(F)C(F)(F)F)n2)nn1-c1ncccc1Cl", "note": "[I-1-243]", "logP": 3.96}
{"smiles": "CCNC(=O)c1cc(I)cc(C)c1NC(=O)c1cc(Cn2nc(C(F)(F)F)nc2C(F)(F)F)nn1-c1ncccc1Cl", "note": "[I-1-244]", "logP": 3.83}
{"smiles": "Cc1cc(I)cc(C(=O)NCC#N)c1NC(=O)c1cc(Cn2nc(C(F)(F)F)nc2C(F)(F)F)nn1-c1ncccc1Cl", "note": "[I-1-245]", "logP": 3.53}
{"smiles": "Cc1cc(I)cc(C(=O)NCC#N)c1NC(=O)c1cc(Cn2cc(Cl)c(C(F)(F)C(F)(F)F)n2)nn1-c1ncccc1Cl", "note": "[I-1-246]", "logP": 3.85}
{"smiles": "CNC(=O)c1cc(I)cc(C)c1NC(=O)c1cc(Cn2ccc(C(F)(F)F)n2)nn1-c1ncccc1Cl", "note": "[I-1-247]", "logP": 3.05}
{"smiles": "Cc1cc(I)cc(C(=O)NC(C)C)c1NC(=O)c1cc(Cn2ccc(C(F)(F)F)n2)nn1-c1ncccc1Cl", "note": "[I-1-248]", "logP": 3.51}
{"smiles": "Cc1cc(I)cc(C(=O)NC2CC2)c1NC(=O)c1cc(Cn2ccc(C(F)(F)F)n2)nn1-c1ncccc1Cl", "note": "[I-1-249]", "logP": 3.27}
{"smiles": "CCNC(=O)c1cc(I)cc(C)c1NC(=O)c1cc(Cn2ccc(C(F)(F)F)n2)nn1-c1ncccc1Cl", "note": "[I-1-250]", "logP": 3.28}
{"smiles": "Cc1cc(I)cc(C(=O)NCC#N)c1NC(=O)c1cc(Cn2ccc(C(F)(F)F)n2)nn1-c1ncccc1Cl", "note": "[I-1-251]", "logP": 3.04}
{"smiles": "Cc1cc(I)cc(C(=O)NC2CC2)c1NC(=O)c1cc(Cn2nc(C(F)(F)F)nc2C(F)(F)F)nn1-c1ncccc1Cl", "note": "[I-1-252]", "logP": 3.81}
{"smiles": "Cc1cc(I)cc(C(=O)NCC2CC2)c1NC(=O)c1cc(Cn2nc(C(F)(F)F)nc2C(F)(F)F)nn1-c1ncccc1Cl", "note": "[I-1-253]", "logP": 4.13}
{"smiles": "Cc1cc(I)cc(C(=O)NCC2CC2)c1NC(=O)c1cc(Cn2cc(Cl)c(C(F)(F)C(F)(F)F)n2)nn1-c1ncccc1Cl", "note": "[I-1-254]", "logP": 4.47}
{"smiles": "Cc1cc(I)cc(C(=O)N(C)C)c1NC(=O)c1cc(Cn2nc(C(F)(F)F)cc2C(F)(F)F)nn1-c1ncccc1Cl", "note": "[I-1-256]", "logP": 3.84}
{"smiles": "CNC(=O)c1cc(Cl)cc(C)c1NC(=O)c1cc(Cn2nc(C(F)F)c([N+](=O)[O-])c2C(F)F)nn1-c1ncccc1Cl", "note": "[I-1-257]", "logP": 2.92}
{"smiles": "Cc1cc(Cl)cc(C(=O)NC(C)C)c1NC(=O)c1cc(Cn2nc(C(F)F)c([N+](=O)[O-])c2C(F)F)nn1-c1ncccc1Cl", "note": "[I-1-258]", "logP": 3.32}
{"smiles": "CC(C)NC(=O)c1cc(Cl)cc(Cl)c1NC(=O)c1cc(Cn2nc(C(F)F)c([N+](=O)[O-])c2C(F)F)nn1-c1ncccc1Cl", "note": "[I-1-259]", "logP": 3.27}
{"smiles": "Cc1cc(Cl)cc(C(=O)NC2CC2)c1NC(=O)c1cc(Cn2nc(C(F)F)c([N+](=O)[O-])c2C(F)F)nn1-c1ncccc1Cl", "note": "[I-1-260]", "logP": 3.12}
{"smiles": "O=C(NC1CC1)c1cc(Cl)cc(Cl)c1NC(=O)c1cc(Cn2nc(C(F)F)c([N+](=O)[O-])c2C(F)F)nn1-c1ncccc1Cl", "note": "[I-1-261]", "logP": 3.08}
{"smiles": "CSc1ncn(Cc2cc(C(=O)Nc3c(C)cc(Cl)cc3C(=O)NC(C)C)n(-c3ncccc3Cl)n2)n1", "note": "[I-1-262]", "logP": 2.31}
{"smiles": "CSc1ncn(Cc2cc(C(=O)Nc3c(C)cc(Cl)cc3C(=O)NC3CC3)n(-c3ncccc3Cl)n2)n1", "note": "[I-1-263]", "logP": 2.13}
{"smiles": "CNC(=O)c1cc(Cl)cc(C)c1NC(=O)c1cc(Cn2cnc(SC)n2)nn1-c1ncccc1Cl", "note": "[I-1-265]", "logP": 1.94}
{"smiles": "CNC(=O)c1cc(Cl)cc(Cl)c1NC(=O)c1cc(Cn2nc(C(F)F)c([N+](=O)[O-])c2C(F)F)nn1-c1ncccc1Cl", "note": "[I-1-266]", "logP": 2.99}
{"smiles": "Cc1cc(I)cc(C(=O)NC(C)C)c1NC(=O)c1cc(Cn2nc(C(F)F)c([N+](=O)[O-])c2C(F)F)nn1-c1ncccc1Cl", "note": "[I-1-267]", "logP": 3.67}
{"smiles": "Cc1cc(I)cc(C(=O)NC2CC2)c1NC(=O)c1cc(Cn2nc(C(F)F)c([N+](=O)[O-])c2C(F)F)nn1-c1ncccc1Cl", "note": "[I-1-268]", "logP": 3.44}
{"smiles": "Cc1cc(Cl)cc(C(=O)NC(C)C)c1NC(=O)c1cc(Cn2nc(C)c(Br)c2C)nn1-c1ncccc1Cl", "note": "[I-1-269]", "logP": 3.4}
{"smiles": "CNC(=O)c1cc(Cl)cc(C)c1NC(=O)c1cc(Cn2nc(C)c(Br)c2C)nn1-c1ncccc1Cl", "note": "[I-1-270]", "logP": 2.95}
{"smiles": "Cc1cc(Cl)cc(C(=O)NC2CC2)c1NC(=O)c1cc(Cn2nc(C)c(Br)c2C)nn1-c1ncccc1Cl", "note": "[I-1-271]", "logP": 3.17}
{"smiles": "Cc1cc(I)cc(C(N)=O)c1NC(=O)c1cc(Cn2nc(C(F)(F)F)nc2C(F)(F)F)nn1-c1ncccc1Cl", "note": "[I-1-272]", "logP": 3.38}
{"smiles": "Cc1cc(I)cc(C(N)=O)c1NC(=O)c1cc(Cn2ccc(C(F)(F)F)n2)nn1-c1ncccc1Cl", "note": "[I-1-273]", "logP": 2.84}
{"smiles": "CCNC(=O)c1cc(I)cc(C)c1NC(=O)c1cc(Cn2cc(C(F)(F)C(F)(F)F)c(C(F)(F)C(F)(F)F)n2)nn1-c1ncccc1Cl", "note": "[I-1-274]", "logP": 4.74}
{"smiles": "Cc1cc(I)cc(C(=O)NC2CC2)c1NC(=O)c1cc(Cn2cc(C(F)(F)C(F)(F)F)c(C(F)(F)C(F)(F)F)n2)nn1-c1ncccc1Cl", "note": "[I-1-275]", "logP": 4.71}
{"smiles": "Cc1cc(I)cc(C(=O)NC2CC2)c1NC(=O)c1cc(Cn2cc(Cl)c(C(F)(F)C(F)(F)F)n2)nn1-c1ncccc1Cl", "note": "[I-1-276]", "logP": 4.15}
{"smiles": "CCNC(=O)c1cc(I)cc(C)c1NC(=O)c1cc(Cn2cc(Cl)c(C(F)(F)C(F)(F)F)n2)nn1-c1ncccc1Cl", "note": "[I-1-277]", "logP": 4.17}
{"smiles": "CNC(=O)c1cc(I)cc(C)c1NC(=O)c1cc(Cn2nc(C(F)F)c([N+](=O)[O-])c2C(F)F)nn1-c1ncccc1Cl", "note": "[I-1-278]", "logP": 3.25}
{"smiles": "Cc1cc(I)cc(C(=O)NC2CCCC2)c1NC(=O)c1cc(Cn2nc(C(F)(F)F)nc2C(F)(F)F)nn1-c1ncccc1Cl", "note": "[I-1-279]", "logP": 4.47}
{"smiles": "Cc1cc(I)cc(C(=O)NC2CCCCCCCCCCC2)c1NC(=O)c1cc(Cn2nc(C(F)(F)F)nc2C(F)(F)F)nn1-c1ncccc1Cl", "note": "[I-1-280]", "logP": 6.56}
{"smiles": "Cc1cc(I)cc(C(=O)NC2CCCCC2)c1NC(=O)c1cc(Cn2nc(C(F)(F)F)nc2C(F)(F)F)nn1-c1ncccc1Cl", "note": "[I-1-281]", "logP": 4.54}
{"smiles": "Cc1cc(I)cc(C(=O)NC2CCC2)c1NC(=O)c1cc(Cn2nc(C(F)(F)F)nc2C(F)(F)F)nn1-c1ncccc1Cl", "note": "[I-1-282]", "logP": 4.18}
{"smiles": "CCNC(=O)c1cc(I)cc(C)c1NC(=O)c1cc(Cn2nc(C(F)(F)F)nc2C(F)(F)F)nn1-c1ncccc1Cl", "note": "[I-1-283]", "logP": 3.89}
{"smiles": "Cc1cc(I)cc(C(=O)NC(C)C2CC2)c1NC(=O)c1cc(Cn2nc(C(F)(F)F)nc2C(F)(F)F)nn1-c1ncccc1Cl", "note": "(stereo not drawn) [I-1-284]", "logP": 4.16}
{"smiles": "Cc1cc(I)cc(C(=O)NC(C)(C)C)c1NC(=O)c1cc(Cn2nc(C(F)(F)F)nc2C(F)(F)F)nn1-c1ncccc1Cl", "note": "[I-1-285]", "logP": 4.23}
{"smiles": "Cc1cc(I)cc(C(=O)NC(C2CC2)C2CC2)c1NC(=O)c1cc(Cn2nc(C(F)(F)F)nc2C(F)(F)F)nn1-c1ncccc1Cl", "note": "[I-1-286]", "logP": 4.52}
{"smiles": "Cc1cc(I)cc(C(=O)NC(C)C2CC2)c1NC(=O)c1cc(Cn2cc(Cl)c(C(F)(F)C(F)(F)F)n2)nn1-c1ncccc1Cl", "note": "(stereo not drawn) [I-1-287]", "logP": 4.69}
{"smiles": "Cc1cc(I)cc(C(=O)NC(C2CC2)C2CC2)c1NC(=O)c1cc(Cn2cc(Cl)c(C(F)(F)C(F)(F)F)n2)nn1-c1ncccc1Cl", "note": "[I-1-288]", "logP": 4.79}
{"smiles": "Cc1cc(I)cc(C(=O)NC(C)(C)C)c1NC(=O)c1cc(Cn2cc(Cl)c(C(F)(F)C(F)(F)F)n2)nn1-c1ncccc1Cl", "note": "[I-1-289]", "logP": 4.63}
{"smiles": "CNC(=O)c1cc(Cl)cc(Cl)c1NC(=O)c1cc(Cn2nc(C(F)(F)F)nc2C(F)(F)F)nn1-c1ncccc1Cl", "note": "[I-1-290]", "logP": 3.40}
{"smiles": "CC(C)NC(=O)c1cc(Cl)cc(Cl)c1NC(=O)c1cc(Cn2nc(C(F)(F)F)nc2C(F)(F)F)nn1-c1ncccc1Cl", "note": "[I-1-291]", "logP": 3.76}
{"smiles": "N#CCNC(=O)c1cc(Cl)cc(Cl)c1NC(=O)c1cc(Cn2nc(C(F)(F)F)nc2C(F)(F)F)nn1-c1ncccc1Cl", "note": "[I-1-292]", "logP": 2.83}
{"smiles": "O=C(NCC1CC1)c1cc(Cl)cc(Cl)c1NC(=O)c1cc(Cn2nc(C(F)(F)F)nc2C(F)(F)F)nn1-c1ncccc1Cl", "note": "[I-1-293]", "logP": 3.22}
